This note sets out measurements from patent US10485773B2, “Benzenesulfonamide derivatives and method for treating cancer” (GONGWIN BIOPHARM HOLDINGS CO., LTD., priority 2016, dated 2019).

Tested on in one data set: not listed separately
In words: first dissolution test in DMSO or water. The note with it: first dissolution test; amount for a 3M solution in 0.5 mL; DMSO, up to 15000 μL. As to the method: Each of the powder of p-TSA derivatives was duplicated, placed in each 15 mL centrifuge tube, followed by adding 200 μL DMSO or 200 μL water and shaking for 10 to 20 seconds for dissolution observation. If the powder was not dissolved, additional DMSO or water was added, and then the mixture was shaken. The tube was left to stand for 10 minutes for observation if the powder was still not dissolved after adding 1 mL DMSO or 1 mL water. If the powder was still not dissolved after adding 5 mL DMSO or 5 mL water, additional 1 mL DMSO or 1 mL water was added, and then the mixture was shaken for 30 seconds. If the powder was still not dissolved after adding 10 mL DMSO or 10 mL water, the tube was left to stand for 12 to 16 hours and observed on the next day. DMSO or water was added into the tube having the undissolved p-TSA derivatives up to 15 mL, followed by shaking for 30 minutes for observation.
Turning to `Cc1ccc(S(=O)(=O)N[C@@H](CO)C(=O)O)cc1` [PTSA046], the “Total volume of DMSO for dissolving the p-TSA derivatives” value came to 845 µL.

For `Cc1ccc(S(=O)(=O)N2CCCC2C(=O)O)cc1` (centres unmarked) [PTSA047], the “Total volume of DMSO for dissolving the p-TSA derivatives” value turned out to be 2000 µL.

As for `Cc1ccc(S(=O)(=O)NCCS(=O)(=O)O)cc1` [PTSA048], the “Total volume of DMSO for dissolving the p-TSA derivatives” value came to 2000 µL.

With `Cc1ccc(S(=O)(=O)NCCN(C)C)cc1.Cl` [PTSA051], the “Total volume of DMSO for dissolving the p-TSA derivatives” value amounted to 1500 µL.

As for `Cc1ccc(S(=O)(=O)NC2CCNCC2)cc1.Cl` [PTSA052], the “Total volume of DMSO for dissolving the p-TSA derivatives” value came out at 2000 µL.

Turning to `Cc1ccc(S(=O)(=O)N2CCC(N)CC2)cc1.Cl` [PTSA053], the “Total volume of DMSO for dissolving the p-TSA derivatives” value was determined as 15000 µL.

As to `Cc1ccc(S(=O)(=O)NCC2CCNCC2)cc1.Cl` [PTSA054], the “Total volume of DMSO for dissolving the p-TSA derivatives” value is 740 µL.

As to `Cc1ccc(S(=O)(=O)N2CC(C(=O)[O-])C2)cc1.[Na+]` [PTSA061], the “Total volume of DMSO for dissolving the p-TSA derivatives” value was found to be 2500 µL.

Consider `Cc1ccc(S(=O)(=O)N2CC(C(N)=O)C2)cc1` [PTSA062], for which the “Total volume of DMSO for dissolving the p-TSA derivatives” value turned out to be 3000 µL.

Turning to `Cc1ccc(S(=O)(=O)N2CC(C#N)C2)cc1` [PTSA063], the “Total volume of DMSO for dissolving the p-TSA derivatives” value was 900 µL.

In the case of `Cc1ccc(S(=O)(=O)N2CC(F)(F)C2)cc1` [PTSA064], the “Total volume of DMSO for dissolving the p-TSA derivatives” value is 750 µL.

Consider `Cc1ccc(S(=O)(=O)N2CC(F)C2)cc1` [PTSA065], for which the “Total volume of DMSO for dissolving the p-TSA derivatives” value stood at 2500 µL.

With `Cc1ccc(S(=O)(=O)N2CC(=O)C2)cc1` [PTSA066], the “Total volume of DMSO for dissolving the p-TSA derivatives” value was found to be 3000 µL.

The data set is the same for the next values; noted with them: first dissolution test; amount for a 3M solution in 0.5 mL; water, up to 15000 μL.
As to `Cc1ccc(S(=O)(=O)N[C@@H](CO)C(=O)O)cc1` [PTSA046], the “Total volume of water for dissolving the p-TSA derivatives” value is recorded as “insoluble in 15000 μL”.

`Cc1ccc(S(=O)(=O)N2CCCC2C(=O)O)cc1` (centres unmarked) [PTSA047]: the “Total volume of water for dissolving the p-TSA derivatives” value is 2500 µL.

On to `Cc1ccc(S(=O)(=O)NCCS(=O)(=O)O)cc1` [PTSA048], for which the “Total volume of water for dissolving the p-TSA derivatives” value was determined as 10000 µL.

For the compound `Cc1ccc(S(=O)(=O)NCCN(C)C)cc1.Cl` [PTSA051], the “Total volume of water for dissolving the p-TSA derivatives” value stood at 1000 µL.

On to `Cc1ccc(S(=O)(=O)NC2CCNCC2)cc1.Cl` [PTSA052], for which the “Total volume of water for dissolving the p-TSA derivatives” value stood at 5000 µL.

Turning to `Cc1ccc(S(=O)(=O)N2CCC(N)CC2)cc1.Cl` [PTSA053], the “Total volume of water for dissolving the p-TSA derivatives” value worked out at 2500 µL.

For the compound `Cc1ccc(S(=O)(=O)NCC2CCNCC2)cc1.Cl` [PTSA054], the “Total volume of water for dissolving the p-TSA derivatives” value is listed as “insoluble in 15000 μL”.

For the compound `Cc1ccc(S(=O)(=O)N2CC(C(=O)[O-])C2)cc1.[Na+]` [PTSA061], the “Total volume of water for dissolving the p-TSA derivatives” value was found to be 750 µL.

Turning to `Cc1ccc(S(=O)(=O)N2CC(C(N)=O)C2)cc1` [PTSA062], the “Total volume of water for dissolving the p-TSA derivatives” value is “insoluble in 15000 μL”.

For the compound `Cc1ccc(S(=O)(=O)N2CC(C#N)C2)cc1` [PTSA063], the “Total volume of water for dissolving the p-TSA derivatives” value is listed as “insoluble in 15000 μL”.

In the case of `Cc1ccc(S(=O)(=O)N2CC(F)(F)C2)cc1` [PTSA064], the “Total volume of water for dissolving the p-TSA derivatives” value is listed as “insoluble in 15000 μL”.

Regarding `Cc1ccc(S(=O)(=O)N2CC(F)C2)cc1` [PTSA065], the “Total volume of water for dissolving the p-TSA derivatives” value is recorded as “insoluble in 15000 μL”.

For the compound `Cc1ccc(S(=O)(=O)N2CC(=O)C2)cc1` [PTSA066], the “Total volume of water for dissolving the p-TSA derivatives” value is recorded as “insoluble in 15000 μL”.

For the next data set, the system named is human non-small-cell lung cancer cell lines H460. The data set is described as follows: SRB growth inhibition of lung cancer cells. It counts as cell-based. As to conditions: Homo sapiens, NCI-H460, 48 h, derivative dissolved in DMSO; 48 hours; SRB; read-out: IC50 of H460 in DMSO. As to the method: (§1) After letting to stand for 10 minutes at room temperature, the supernatant of each well was removed, and each well was washed with 200 μL H2O once. […] Each of the plates was then placed in the laminar flow cabinet for 1 hour for air dry. 50 μL 0.4% sulforhodamine B (SRB) dye was added into each well of the 96-well plate. […] Each of the plates was then placed in the laminar flow cabinet for 40 minutes to 1 hour for air dry. 1×Tris-Base solution with pH 7.0 to 7.4 was added to each well of the 96-well plate to dissolve the protein complex formed in the bottom of each well, followed by tapping the 96-well plate, allowing the complex in each well to be dissolved uniformly. Absorption of each well under 515 nm was read. […] Each of the experimental group was performed in triplet.
The term IC50 denotes the concentration needed to halve the response being measured. Consider `Cc1ccc(S(=O)(=O)N[C@@H](CO)C(=O)O)cc1` [PTSA046], for which the IC50 is over 10000 µM.

Take `Cc1ccc(S(=O)(=O)N2CCCC2C(=O)O)cc1` (centres unmarked) [PTSA047]: the IC50 is over 3000 µM.

As for `Cc1ccc(S(=O)(=O)NCCS(=O)(=O)O)cc1` [PTSA048], the IC50 was over 3000 µM.

As to `Cc1ccc(S(=O)(=O)NCCN(C)C)cc1.Cl` [PTSA051], the IC50 is 1820 µM.

Turning to `Cc1ccc(S(=O)(=O)NC2CCNCC2)cc1.Cl` [PTSA052], the IC50 worked out at 906 µM.

As for `Cc1ccc(S(=O)(=O)NCC2CCNCC2)cc1.Cl` [PTSA054], the IC50 worked out at 1170 µM.

As to `Cc1ccc(S(=O)(=O)N2CC(C(N)=O)C2)cc1` [PTSA062], the IC50 was over 2250 µM.

As for `Cc1ccc(S(=O)(=O)N2CC(C#N)C2)cc1` [PTSA063], the IC50 was 1270 µM.

On to `Cc1ccc(S(=O)(=O)N2CC(F)(F)C2)cc1` [PTSA064], for which the IC50 was over 713 µM.

Turning to `Cc1ccc(S(=O)(=O)N2CC(F)C2)cc1` [PTSA065], the IC50 stood at 1330 µM.

Regarding `Cc1ccc(S(=O)(=O)N2CC(=O)C2)cc1` [PTSA066], the IC50 came out at 906 µM.

The same data set, now with this note: Homo sapiens, NCI-H460, 48 h, derivative dissolved in water; 48 hours; SRB; read-out: IC50 of H460 in water.
`Cc1ccc(S(=O)(=O)N2CCCC2C(=O)O)cc1` (centres unmarked) [PTSA047]: the IC50 is over 3000 µM.

Turning to `Cc1ccc(S(=O)(=O)NCCS(=O)(=O)O)cc1` [PTSA048], the IC50 is over 3000 µM.

In the case of `Cc1ccc(S(=O)(=O)NCCN(C)C)cc1.Cl` [PTSA051], the IC50 was determined as 1750 µM.

For `Cc1ccc(S(=O)(=O)NC2CCNCC2)cc1.Cl` [PTSA052], the IC50 came to 1090 µM.

Consider `Cc1ccc(S(=O)(=O)N2CCC(N)CC2)cc1.Cl` [PTSA053], for which the IC50 stood at 691 µM.

Staying with this data set, now noted: Homo sapiens, NCI-H460, 48 h, read-out: IC50 of H460 in DMSO.
Regarding `Cc1ccc(S(=O)(=O)N2CC(C(=O)[O-])C2)cc1.[Na+]` [PTSA061], the IC50 is over 2250 µM.

Still in this data set, the particulars now being: Homo sapiens, NCI-H460, 48 h, read-out: IC50 of H460 in water.
Consider `Cc1ccc(S(=O)(=O)N2CC(C(=O)[O-])C2)cc1.[Na+]` [PTSA061], for which the IC50 was over 8800 µM.

In a further data set the test system is human liver cancer cell lines Hep3B. The data set is described as follows: SRB growth inhibition of liver cancer cells. It counts as cell-based. The note with it: Homo sapiens, Hep3B, 48 h, derivative dissolved in DMSO; 48 hours; SRB; read-out: IC50 of Hep3B in DMSO. How it is done: as §1
In the case of `Cc1ccc(S(=O)(=O)N[C@@H](CO)C(=O)O)cc1` [PTSA046], the IC50 was over 10000 µM.

As for `Cc1ccc(S(=O)(=O)N2CCCC2C(=O)O)cc1` (centres unmarked) [PTSA047], the IC50 was over 3000 µM.

With `Cc1ccc(S(=O)(=O)NCCS(=O)(=O)O)cc1` [PTSA048], the IC50 is over 3000 µM.

`Cc1ccc(S(=O)(=O)NCCN(C)C)cc1.Cl` [PTSA051]: the IC50 was 1410 µM.

`Cc1ccc(S(=O)(=O)NC2CCNCC2)cc1.Cl` [PTSA052]: the IC50 was determined as 919 µM.

Turning to `Cc1ccc(S(=O)(=O)NCC2CCNCC2)cc1.Cl` [PTSA054], the IC50 came to 935 µM.

For `Cc1ccc(S(=O)(=O)N2CC(C(N)=O)C2)cc1` [PTSA062], the IC50 was over 2250 µM.

Turning to `Cc1ccc(S(=O)(=O)N2CC(C#N)C2)cc1` [PTSA063], the IC50 is 1300 µM.

As to `Cc1ccc(S(=O)(=O)N2CC(F)(F)C2)cc1` [PTSA064], the IC50 is over 713 µM.

For the compound `Cc1ccc(S(=O)(=O)N2CC(F)C2)cc1` [PTSA065], the IC50 is 1450 µM.

Regarding `Cc1ccc(S(=O)(=O)N2CC(=O)C2)cc1` [PTSA066], the IC50 is 733 µM.

The data set is the same for the next values; noted with them: Homo sapiens, Hep3B, 48 h, derivative dissolved in water; 48 hours; SRB; read-out: IC50 of Hep3B in water.
As for `Cc1ccc(S(=O)(=O)N2CCCC2C(=O)O)cc1` (centres unmarked) [PTSA047], the IC50 is over 3000 µM.

`Cc1ccc(S(=O)(=O)NCCS(=O)(=O)O)cc1` [PTSA048]: the IC50 is over 3000 µM.

For the compound `Cc1ccc(S(=O)(=O)NCCN(C)C)cc1.Cl` [PTSA051], the IC50 worked out at 1440 µM.

Take `Cc1ccc(S(=O)(=O)NC2CCNCC2)cc1.Cl` [PTSA052]: the IC50 was 954 µM.

On to `Cc1ccc(S(=O)(=O)N2CCC(N)CC2)cc1.Cl` [PTSA053], for which the IC50 stood at 770 µM.

Staying with this data set, now noted: Homo sapiens, Hep3B, 48 h, read-out: IC50 of Hep3B in DMSO.
Turning to `Cc1ccc(S(=O)(=O)N2CC(C(=O)[O-])C2)cc1.[Na+]` [PTSA061], the IC50 was over 2250 µM.

Still in this data set, the particulars now being: Homo sapiens, Hep3B, 48 h, read-out: IC50 of Hep3B in water.
`Cc1ccc(S(=O)(=O)N2CC(C(=O)[O-])C2)cc1.[Na+]` [PTSA061]: the IC50 is over 8800 µM.
